Experimental data reported in patent US12180187B2, “1-phenyl-5-azinylpyrazolyl-3-oxyalkyl acids and their use for controlling unwanted plant growth” (BAYER AKTIENGESELLSCHAFT, priority 2019, dated 2024).

Tests used:
AMARE [1] = assay: Pre-emergence action against AMARE, 1280 g/ha; format: in vivo, Amaranthus retroflexus; settings: scored visually after about 3 weeks vs untreated controls (100% = plants have died)
Outline: (§1)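 Visual % scoring, roughly 3 weeks post-application, against untreated controls; 100% means plants died. Treatment went onto the soil covering sown seeds (sandy loam), as aqueous suspension or emulsion plus 0.5% additive.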

ECHCG [2] = assay: Pre-emergence action against ECHCG, 1280 g/ha; format: in vivo, Echinochloa crus-galli; settings: visual scoring after about 3 weeks vs untreated controls, 100% = plants have died, 0% = like control plants
Outline: as §1

VERPE [3] = assay: Post-emergence action against VERPE, 1.28 kg/ha; format: in vivo, Veronica persica; settings: dosage 1280 g/ha, visual rating about 3 weeks after treatment vs untreated controls (100% = plants died)
Outline: (§2)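 Foliar application at the one-leaf stage: compound as WP or EC in water with 0.5% additive, sprayed at 600 L/ha. Plants are kept about 3 weeks in the greenhouse, then % herbicidal action is estimated visually (100% = death).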

ABUTH [4] = assay: Pre-emergence action against ABUTH, 1280 g/ha; format: in vivo, Abutilon theophrasti; settings: scored visually after about 3 weeks vs untreated controls (100% = plants have died)
Text: 1. Pre-Emergence Herbicidal Effect and Crop Plant Compatibility a) Seeds of mono- and dicotyledonous weed plants are placed in plastic pots in sandy loam soil (doubly sown with one species each of mono- or dicotyledonous weed plants per pot) and covered with soil. The compounds of the invention, formulated in the form of wettable powders (WP) or as emulsion concentrates (EC), are then applied onto the surface of the covering soil as aqueous suspension or emulsion with addition of 0.5% additive at a water application rate equivalent to 600 litres per hectare. After the treatment, the pots are placed in a greenhouse and kept under good growth conditions for the trial plants. After about 3 weeks, the effect of the preparations is scored visually in comparison with untreated controls as percentages. For example, 100% activity=the plants have died, 0% activity=like control plants. 1. Pre-Emergence Effectiveness Tables 1 to 12 below show the effects of selected compounds of the general formula (I) according to Tables 1 and 2 on various harmful plants and at an application rate corresponding to 1280 g/ha, which were obtained by the experimental procedure mentioned above.

MATIN [5] = assay: Pre-emergence action against MATIN, 1280 g/ha; format: in vivo, Tripleurospermum inodorum (Matricaria inodora); settings: scored visually after about 3 weeks vs untreated controls (100% = plants have died)
Outline: as §1

DIGSA [6] = assay: Pre-emergence action against DIGSA, 1280 g/ha; format: in vivo, Digitaria sanguinalis; settings: visual scoring after about 3 weeks vs untreated controls, 100% = plants have died, 0% = like control plants
Outline: as §1

ALOMY [7] = assay: Pre-emergence action against ALOMY, 1280 g/ha; format: in vivo, Alopecurus myosuroides; settings: visual scoring after about 3 weeks vs untreated controls, 100% = plants have died, 0% = like control plants
Outline: as §1

SETVI [8] = assay: Pre-emergence action against SETVI, 1280 g/ha; format: in vivo, Setaria viridis; settings: visual scoring after about 3 weeks vs untreated controls, 100% = plants have died, 0% = like control plants
Outline: as §1

ECHCG [9] = assay: Post-emergence action against ECHCG, 1.28 kg/ha; format: in vivo, Echinochloa crus-galli; settings: dosage 1280 g/ha, visual rating about 3 weeks after treatment vs untreated controls
Outline: as §2

VERPE [10] = assay: Pre-emergence action against VERPE, 1280 g/ha; format: in vivo, Veronica persica; settings: scored visually after about 3 weeks vs untreated controls (100% = plants have died)
Outline: as §1

STEME = assay: Pre-emergence action against STEME, 1280 g/ha; format: in vivo, Stellaria media; settings: scored visually after about 3 weeks vs untreated controls (100% = plants have died)
Outline: as §1

POAAN [11] = assay: Pre-emergence action against POAAN, 1280 g/ha; format: in vivo, Poa annua; settings: visual scoring after about 3 weeks vs untreated controls, 100% = plants have died, 0% = like control plants
Outline: as §1

POAAN [12] = assay: Post-emergence action against POAAN, 1.28 kg/ha; format: in vivo, Poa annua; settings: dosage 1280 g/ha, visual rating about 3 weeks after treatment vs untreated controls
Outline: as §2

SETVI [13] = assay: Post-emergence action against SETVI, 1.28 kg/ha; format: in vivo, Setaria viridis; settings: dosage 1280 g/ha, visual rating about 3 weeks after treatment vs untreated controls
Outline: as §2

KCHSC [14] = assay: Post-emergence action against KCHSC, 1.28 kg/ha; format: in vivo, Bassia scoparia; settings: dosage 1280 g/ha, visual rating about 3 weeks after treatment vs untreated controls (100% = plants died)
Outline: as §2

LOLRI [15] = assay: Pre-emergence action against LOLRI, 1280 g/ha; format: in vivo, Lolium rigidum; settings: visual scoring after about 3 weeks vs untreated controls, 100% = plants have died, 0% = like control plants
Outline: as §1

AMARE [16] = assay: Post-emergence action against AMARE, 1.28 kg/ha; format: in vivo, Amaranthus retroflexus; settings: dosage 1280 g/ha, visual rating about 3 weeks after treatment vs untreated controls (100% = plants died)
Outline: as §2

ABUTH [17] = assay: Post-emergence action against ABUTH, 1.28 kg/ha; format: in vivo, Abutilon theophrasti; settings: dosage 1280 g/ha, visual rating about 3 weeks after treatment vs untreated controls (100% = plants died)
Outline: as §2

DIGSA [18] = assay: Post-emergence action against DIGSA, 1.28 kg/ha; format: in vivo, Digitaria sanguinalis; settings: dosage 1280 g/ha, visual rating about 3 weeks after treatment vs untreated controls
Outline: as §2

MATIN [19] = assay: Post-emergence action against MATIN, 1.28 kg/ha; format: in vivo, Tripleurospermum inodorum (Matricaria inodora); settings: dosage 1280 g/ha, visual rating about 3 weeks after treatment vs untreated controls (100% = plants died)
Outline: as §2

SETVI [20] = assay: Pre-emergence action at 320 g/ha against SETVI; format: in vivo, Setaria viridis; settings: visual scoring after about 3 weeks vs untreated controls
Outline: (§3)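 Greenhouse pot trial in which formulated compound (wettable powder or emulsion concentrate) goes onto the soil surface right after sowing, at a spray volume of 600 l/ha including 0.5% additive. Effects are judged visually after about 3 weeks (0% = like control, 100% = dead).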

POLCO = assay: Pre-emergence action at 320 g/ha against POLCO; format: in vivo, Fallopia convolvulus (Polygonum convolvulus); settings: visual scoring after about 3 weeks vs untreated controls
Outline: as §3

LOLRI [21] = assay: Pre-emergence action at 320 g/ha against LOLRI; format: in vivo, Lolium rigidum; settings: visual scoring after about 3 weeks vs untreated controls
Outline: as §3

DIGSA [22] = assay: Pre-emergence action at 320 g/ha against DIGSA; format: in vivo, Digitaria sanguinalis; settings: visual scoring after about 3 weeks vs untreated controls
Outline: as §3

AMARE [23] = assay: Pre-emergence action at 320 g/ha against AMARE; format: in vivo, Amaranthus retroflexus; settings: visual scoring after about 3 weeks vs untreated controls
Outline: as §3

KCHSC [24] = assay: Pre-emergence action against KCHSC, 1280 g/ha; format: in vivo, Bassia scoparia; settings: scored visually after about 3 weeks vs untreated controls (100% = plants have died)
Outline: as §1

AVEFA [25] = assay: Post-emergence action at 320 g/ha against AVEFA; format: in vivo; settings: visual rating about 3 weeks after treatment vs untreated controls
Text: Accordingly, the compounds of the invention have good herbicidal action against a broad spectrum of weed grasses and broad-leaved weeds and are therefore suitable for controlling unwanted vegetation by the post-emergence method. • b) Seeds of monocotyledonous and dicotyledonous weeds and crop plants are placed in sandy loam in plastic or organic planting pots, covered with soil and cultivated in a greenhouse under controlled growth conditions. 2 to 3 weeks after sowing, the test plants are treated at the one-leaf stage. The compounds of the invention, formulated in the form of wettable powders (WP) or as emulsion concentrates (EC), are then sprayed onto the green parts of the plants as aqueous suspension or emulsion with addition of 0.5% additive at a water application rate of 600 l/ha (converted). After the test plants have been kept in the greenhouse under optimum growth conditions for about 3 weeks, the activity of the preparations is rated visually in comparison to untreated controls. For example, 100% activity=the plants have died, 0% activity=like control plants. Tables 39 to 49 below show the effects of selected compounds of the general formula (I) according to Tables 1 and 2 on various harmful plants and at an application rate corresponding to 320 g/ha, which were obtained by the experimental procedure mentioned above.

VIOTR = assay: Pre-emergence action at 320 g/ha against VIOTR; format: in vivo, Viola tricolor; settings: dosage 320 g/ha
Outline: as §3

VERPE [26] = assay: Pre-emergence action at 320 g/ha against VERPE; format: in vivo, Veronica persica; settings: visual scoring after about 3 weeks vs untreated controls
Outline: as §3

AVEFA [27] = assay: Pre-emergence action at 320 g/ha against AVEFA; format: in vivo; settings: visual scoring after about 3 weeks vs untreated controls
Outline: as §3

ALOMY [28] = assay: Pre-emergence action at 320 g/ha against ALOMY; format: in vivo, Alopecurus myosuroides; settings: scored visually after about 3 weeks vs untreated controls (100% = plants have died)
Outline: as §3

MATIN [29] = assay: Pre-emergence action at 320 g/ha against MATIN; format: in vivo, Tripleurospermum inodorum (Matricaria inodora); settings: visual scoring after about 3 weeks vs untreated controls
Outline: as §3

CN(C)C(=O)COc1nn(-c2ccccc2F)c(-c2ccc(F)nc2)c1Br [Example X-027]
90%: Pre-emergence action against ABUTH (ABUTH [4]) | Pre-emergence action against MATIN (MATIN [5]) | Post-emergence action against ECHCG (ECHCG [9]) | Pre-emergence action against STEME (STEME)
100%: Pre-emergence action against AMARE (AMARE [1]) | Pre-emergence action against ECHCG (ECHCG [2]) | Post-emergence action against VERPE (VERPE [3]) | Pre-emergence action against DIGSA (DIGSA [6]) | Pre-emergence action against ALOMY (ALOMY [7]) | Pre-emergence action against SETVI (SETVI [8]) | Pre-emergence action against VERPE (VERPE [10]) | Pre-emergence action against POAAN (POAAN [11]) | Post-emergence action against POAAN (POAAN [12])

O=C(O)COc1nn(-c2ccccc2F)c(-c2ccc(F)nc2)c1Br [VI-003]
100%: Pre-emergence action against AMARE (AMARE [1]) | Pre-emergence action against ECHCG (ECHCG [2]) | Post-emergence action against SETVI (SETVI [13]) | Pre-emergence action against MATIN (MATIN [5]) | Pre-emergence action against DIGSA (DIGSA [6]) | Pre-emergence action against SETVI (SETVI [8]) | Post-emergence action against ECHCG (ECHCG [9]) | Pre-emergence action against VERPE (VERPE [10]) | Pre-emergence action against POAAN (POAAN [11]) | Post-emergence action against POAAN (POAAN [12]) | Post-emergence action against DIGSA (DIGSA [18]) | Post-emergence action against MATIN (MATIN [19])
90%: Post-emergence action against VERPE (VERPE [3]) | Post-emergence action against KCHSC (KCHSC [14]) | Pre-emergence action against ABUTH (ABUTH [4]) | Pre-emergence action against LOLRI (LOLRI [15]) | Post-emergence action against AMARE (AMARE [16]) | Post-emergence action against ABUTH (ABUTH [17]) | Pre-emergence action against ALOMY (ALOMY [7]) | Pre-emergence action against STEME (STEME)

C[C@@H](Oc1nn(-c2ccccc2F)c(-c2cncnc2)c1[N+](=O)[O-])C(=O)O [VI-016]
90%: Pre-emergence action against POLCO in % (POLCO) | Post-emergence action against VERPE (VERPE [3]) | Post-emergence action against AVEFA in % (AVEFA [25]) | Pre-emergence action against ALOMY (ALOMY [7]) | Post-emergence action against MATIN (MATIN [19])
100%: Pre-emergence action against AMARE (AMARE [1]) | Pre-emergence action against ECHCG (ECHCG [2]) | Pre-emergence action against SETVI in % (SETVI [20]) | Pre-emergence action against LOLRI in % (LOLRI [21]) | Pre-emergence action against DIGSA in % (DIGSA [22]) | Pre-emergence action against AMARE in % (AMARE [23]) | Pre-emergence action against KCHSC (KCHSC [24]) | Pre-emergence action against LOLRI (LOLRI [15]) | Pre-emergence action against VIOTR in % (VIOTR) | Pre-emergence action against MATIN (MATIN [5]) | Post-emergence action against AMARE (AMARE [16]) | Pre-emergence action against VERPE in % (VERPE [26]) | Pre-emergence action against DIGSA (DIGSA [6]) | Pre-emergence action against SETVI (SETVI [8]) | Pre-emergence action at 320 g/ha against ALOMY in % (ALOMY [28]) | Pre-emergence action against MATIN in % (MATIN [29]) | Pre-emergence action against VERPE (VERPE [10]) | Pre-emergence action against STEME (STEME) | Pre-emergence action against POAAN (POAAN [11]) | Post-emergence action against POAAN (POAAN [12])
80%: Pre-emergence action against AVEFA in % (AVEFA [27])
